Results reported in patent US11235011B2, “Use of alphavirus in preparation of antitumor drugs” (GUANGZHOU VIROTECH PHARMACEUTICAL CO., LTD, priority 2014, dated 2022).
d = 2'-deoxy (DNA); r = 2'-OH (RNA)

Tests used:
[1] = tested on: human ex vivo living liver cancer tissues; experiment: Human ex vivo living tumor tissue culture, TECIA/MTT inhibition rate; assay type: cell-based; settings: M1 virus 10^7 PFU, 5-Fu 10 mg/L, 96 hours
Procedure: (§1) The ex vivo living tissue was obtained by surgical excision in Tumor Prevention Center of Sun Yat-sen University, stored at 4 □, and then sent to the laboratory within four hours for drug sensitivity test. All the cases were confirmed by a histopathology examination. Under sterile condition, the tumor tissue was taken out, and cut into tissue pieces with a diameter of 0.5-1 mm, placed onto a 24-well culture plate (4-6 pieces per well), and 1 ml DMEM medium was added into each well. After one hour of culture, a projection illuminated image of the tumor tissue piece was taken by an image analyzer specialized for drug sensitivity test.
(§2) The tumor tissue was cultured in a CO2 cell incubator for 12 hours. […] After 96 hours of the infection treatment, MTT (5 mg/ml) was added at 50 μl/well, and cultured for 3 hours. A diffusion light illuminated image of the tumor tissue piece was then taken by an image analyzer specialized for drug sensitivity test, to determine the blue dyed area by formazan in the tumor piece in each well and the coloring degree (blue area, BA). Then the tissue survival rate (survival fraction, SF) was calculated according the following formula: […]

[2] = tested on: human ex vivo living colorectal cancer tissue; experiment: as above; assay type: cell-based; settings: M1 virus 10^7 PFU, 5-Fu 10 mg/L, 96 hours
Procedure: as §1, §2

ZAP = ZAP protein expression after ZAP RNA interference fragment (Western blot); assay type: cell-based, human
Procedure: The cells in the exponential growth phase were selected, and added into a DMEM complete medium (10% fetal bovine serum, 1% double antibody) to prepare a cell suspension, and the cells were inoculated into a 6-well plate at a density of 1×10^5/well. After 24 hours, Si RNA fragment wrapped with RNAiMAX was added. […] After 48 hours of the infection, the specimens were treated.

Molecule	number of cases with inhibition rate (% control) >10% [1]	number of cases with inhibition rate (% control) ≤10% [1]	ratio of cases with inhibition rate (% control) >10% [1] [%]	ratio of cases with inhibition rate (% control) ≤10% [1] [%]	number of cases with inhibition rate (% control) >10% [2]	number of cases with inhibition rate (% control) ≤10% [2]	ratio of cases with inhibition rate (% control) >10% [2] [%]	ratio of cases with inhibition rate (% control) ≤10% [2] [%]	ZAP protein expression quantity (ZAP; HCT116)	ZAP protein expression quantity (ZAP; L-02)	ZAP protein expression quantity (ZAP; PLC)
O=c1[nH]cc(F)c(=O)[nH]1 [5-Fu, 5-fluorouracil]	14	12	53.8	46.2	8	5	61.5	38.5	–	–	–
ZAP RNA interference fragment: ZAP interference fragment (Si RNA), sense strand SEQ ID No. 8, antisense strand SEQ ID No. 9 (sense CCAAGAGUAGCACUUGUUATT; antisense UAACAAGUGCUACUCUUGGTT; sugars from the 5' end r19 d2, backbone not given here)	–	–	–	–	–	–	–	–	undetectable level	undetectable level	undetectable level
